Experimental data from patent US20020136744A1, “Sustained release drug dispersion delivery device” (Merck & Co., Inc., priority 1999, published 2002).
≈ marks a conversion by molar mass, not a printed value.

Tests used:
[1] = pH-dependent solubility of the beneficial agent; format: physicochemical
Protocol: The formulation of the instant invention was prepared using 1-(3-chlorophenyl)-4-[1-(4-cyanobenzyl)-5-imidazolyl methyl]-2-piperazinone is used as the beneficial agent. The solubility of the beneficial agent decreases from about 1 g/mL at pH 1 to about 70 μg/mL at pH 7, with the solubility cliff occurring at about pH 3.5.

[2] = in vitro release of the drug from the tablets, USP Apparatus II; format: physicochemical; conditions: for release rate / release mechanism: without a pH modulator
Protocol: The in vitro release of the drug from the tablets prepared as above was determined using USP Apparatus II, paddle speed 75 rpm, at 37° C. in 900 ml of dissolution media with pH values 1.2, 1.7 and 6.8. The pH 1.2 and 1.7 media consisted of 0.1N HCl solution adjusted to the appropriate pH by the addition of sodium hydroxide. The pH 6.8 medium consisted of 0.7% sodium dodecyl sulfate in 10 mM phosphate buffer.

N#Cc1ccc(Cn2cncc2CN2CCN(c3cccc(Cl)c3)C(=O)C2)cc1 [1-(3-chlorophenyl)-4-[1-(4-cyanobenzyl)-5-imidazolylmethyl]-2-piperazinone]
solubility cliff (pH at which it occurs) [1]: ~3.5 pH | solubility (in words) ([1]; low pH levels (less than about 2)): very soluble | solubility (in words) ([1]; near neutral pH levels (greater than about 5)): practically insoluble | solubility ([1]; pH 1, simulated gastric fluid): ~1000 mg/mL (≈ 2460 mM) | solubility ([1]; pH 7, aqueous buffer): ~0.07 mg/mL (≈ 0.172 mM) | release rate ([2]; with a pH modulator, over a range of pH levels (FIG. 2)): relatively similar over a range of pH levels | release rate / release mechanism ([2]; media pH about 2.2 to about 6.8 (FIG. 1)): controlled by the gel extrusion mechanism | release rate / release mechanism ([2]; pH about 1.2 (FIG. 1)): dominated by dissolution and diffusion | release rate / release mechanism ([2]; pH about 1.7 (FIG. 1)): both the dissolution/diffusion and gel extrusion mechanisms are repressed
